Substitutions are numbered along the chain they refer to. Like-named read-outs stand apart in the source and are kept apart here.
Tests used:
E234G HYPE = target: T1, E234G HYPE (Homo sapiens, UniProt Q9BVA6, E234G); assay: Fluorescence polarization (FP) microplate autoAMPylation assay with Fl-ATP, E234G HYPE inhibitor HTS, cherrypick validation and concentration-response; type: biochemical; settings: for % Inh. Cherry-pick / % Inh. HTS / inhibition at 10 µM: 10 μM compound; for Mean % Inh.: mean of HTS and cherrypick
T1 construct: Δ102 (aa 103-458) HYPE constructs (WT, E234G, and E234G/H363A); His6-SUMO (cleaved yes); made in house; host or cells: E. coli BL21-DE3-RILP
T1 sequence (Q9BVA6 103-458 E234G): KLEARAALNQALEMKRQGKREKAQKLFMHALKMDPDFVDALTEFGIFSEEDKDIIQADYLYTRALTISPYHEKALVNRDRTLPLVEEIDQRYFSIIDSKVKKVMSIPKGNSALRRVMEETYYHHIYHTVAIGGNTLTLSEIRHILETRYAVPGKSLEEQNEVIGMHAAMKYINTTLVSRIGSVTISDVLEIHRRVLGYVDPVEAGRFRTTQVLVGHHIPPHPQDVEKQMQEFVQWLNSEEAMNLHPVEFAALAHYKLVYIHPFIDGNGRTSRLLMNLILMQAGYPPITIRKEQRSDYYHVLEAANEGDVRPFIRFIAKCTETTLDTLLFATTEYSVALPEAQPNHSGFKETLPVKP
Method: Buffer optimization experiments were performed by incubating 0.4 μM of Δ102 HYPE enzyme with 25 nM Fl-ATP (final concentrations) in HTS buffer (50 mM HEPES (pH 7.5), 1 mM MgCl2, 0.1% Triton X-100, 1% DMSO) in the dark at room temperature for 10 min in 384-well black bottom, black wall microplates (20 μL reaction volume). Where specified, 1 mM MgCl2 was replaced with an equivalent concentration of MnCl2, or 0.1% Triton X-100 was replaced with 0.05% or 0.01% Trion X-100. Microplates were snap centrifuged at 1000 g for 10 sec. Microplates were loaded onto a BioTek BioStack NEO2 plate-reader and assessed for fluorescence polarization with 485/530 nm filters and a 55/50 gain adjustment.
A Multidrop 384 reagent dispenser (ThermoFisher) was used to add 0.4 μM HYPE, then 25 nM Fl-ATP (final concentrations) to 384-well black/black microplates (20 μL reaction volume). Both enzyme and nucleotide were dissolved in HTS Buffer. AMPylation Reactions were incubated for 10 min at room temperature in the dark. Microplates were snap centrifuged at 1000 g for 10 sec, then transferred to BioTek BioStack NEO2 plate-reader. Reactions were assessed for fluorescence polarization with 485/530 nm filters and a 55/50 gain adjustment. Z′, S/B, and CV values were determined by fitting the data to Eq. 1, 2, and 3, respectively,
An Echo Liquid Handler (Labcyte) was used to transfer 200 nL of DMSO-dissolved compounds via acoustic-coupled ejection from 10 mM source plates into 384-well black, flat-bottom, black-walled microplates, for a final compound concentration of 10 μM. Compounds were sourced from the following libraries: DIVERset (Chembridge), CNS-Set (Chembridge). The compounds went into columns 3-22 of each plate, while columns 1, 2, 23, and 24 were reserved for equivalent volume of 100% DMSO controls.
A Multidrop 384 reagent dispenser was used to pipette 0.4 μM of WT HYPE (final concentration) dissolved in HTS Buffer into columns 1-22 of the activator plates, and columns 1 and 2 of the inhibitor plates as positive controls. 0.4 μM of E234G HYPE was similarly added to columns 3-24 of the inhibitor plates, and columns 23 and 24 of the […]. Enzymes were then incubated with either compounds or DMSO for 10 min at room temperature.
A Multidrop 384 reagent dispenser was used to pipette 25 nM of Fl-ATP (final concentration) into all wells of each plate, giving a final reaction volume of 20 μL. Plates were then incubated for 10 min at room temperature in the dark, followed by a snap centrifugation at 1000 g for 10 sec. Microplates were loaded onto BioTek BioStack stacker and read in succession for fluorescence polarization with 485/530 nm filters and a 55/50 gain adjustment. Fluorescence polarization values were converted to fractional activation (FA) or fractional inhibition FI) values according to Eq. (3) or (4), respectively,
[formula] [formula] • where μp and μn are the means of the positive (E234G HYPE) and negative (WT HYPE) controls, respectively; and x is the measured value of fluorescence polarization.
Microplate “cherrypicking” validations were performed as described above.
A Multidrop 384 reagent dispenser was used to pipette 0.4 μM of WT or E234G HYPE (final concentrations) dissolved in HTS Buffer into designated microplate wells. 10 μM of DMSO-dissolved compounds (final concentrations) or equivalent volume of 100% DMSO were manually pipetted into their specified wells. Enzymes were incubated with compounds or DMSO for 10 min at room temperature. Reagent dispenser was then used to pipette 25 nM of Fl-ATP (final concentration) into each well, followed by a 10 min incubation at room temperature in the dark. Plates were snap centrifuged at 1000 g for 10 sec, then transferred to BioTek BioStack NEO2 plate-reader. Reactions were assessed for fluorescence polarization with 485/530 nm filters and a 55/50 gain adjustment. EC50 and IC50 values were determined by fitting polarization values to Eq. (5) and (6), respectively, […]

WT HYPE = target: T2, WT HYPE (Homo sapiens, UniProt Q9BVA6); assay: Fluorescence in-gel autoAMPylation assay with WT HYPE and Fl-ATP; type: biochemical; settings: 10 μM compound, versus DMSO control
T2 construct: Δ102 (aa 103-458) HYPE constructs (WT, E234G, and E234G/H363A); His6-SUMO (cleaved yes); made in house; host or cells: E. coli BL21-DE3-RILP
T2 sequence (Q9BVA6 103-458): T1 sequence (Q9BVA6 103-458 E234G) with G132E
Method: 1 μM of WT HYPE (final concentration) was preincubated with 10 μM DMSO-dissolved compound (final concentration) or equivalent volume of 100% DMSO at room temperature for 10 min. Reactions were run for 20 hr at 30° C. in the dark and began with the addition of 1 μM Fl-ATP (final concentration). Alternatively, E234G HYPE AMPylation reactions were run at 10 min due to its hyperactivity. All other parameters were held constant. All reactions were performed HTS Buffer (50 mM HEPES, 1 mM MgCl2, 0.1% Triton X-100, pH 7.50). All reactions were quenched with 4×SDS loading dye, boiled for 5 min at 95° C., and samples were run on 12% SDS-PAGE gels. Gels were imaged on a Typhoon 9500 FLA imager (General Electric) for fluorescence at 473 nm. Imaged gels were then stained with Coomassie Brilliant Blue, destained, and imaged for protein concentration. Where specified, 5 μM of T229A BiP (final concentration) was added to reactions before the addition of compound.

HeLa cells = assay: MTT cell viability assay, HeLa; type: cell-based, human; settings: HeLa, 48 hr
Method: The cell lines were procured from ATCC (American Type Culture Collection) and cultured in DMEM (Dulbecco's Modified Eagle Medium) supplemented with 10% FBS (fetal bovine serum) without antibiotics. Cells were grown and maintained in a humidified incubator at 37° C. with 5% CO2. For the MTT assay, cells were trypsinized and harvested at ˜80-90% confluency and seeded in 96 well plates at a density of 1×10^4 cells per well. The seeded cells were incubated overnight and treated with 1 μM, 3 μM, 5 μM, 7 μM, 10 μM, 20 μM, 30 μM or 50 μM (final concentration) of DMSO-dissolved compound for 48 hr. To rule out vehicle induced toxicity, only 0.5% of final DMSO concentration was added to the cells. Post-incubation, the compound treatment was removed and replaced with 0.5 mg/ml (final concentration) of freshly prepared MTT solution. After incubating for 3.5 hr at 37° C., 5% CO2 humidified incubator, MTT was carefully removed without aspirating the formazan crystals and replaced with equivalent volume of DMSO to dissolve the formazan crystals. The plates were then read using a multi-plate reader at 570 nm. The absorbance was recorded and % viability was calculated according to the following equation:
[formula] • where, Abt is the absorbance of compound treated cells and Abc is the absorbance of control cells.

[1] = target: T3, IbpA-Fic2 (IbpA-2) AMPylation of Cdc42 (Histophilus somni, UniProt Q06277); assay: Radioactive in-gel AMPylation assay with WT IbpA-Fic2, Cdc42 and α-32P-ATP (cross reactivity); type: biochemical; settings: 10 μM compound, versus DMSO control
T3 construct: a construct solely containing the second of the two domains, IbpA-2; made in house
T3 sequence (Q06277 3640-3777): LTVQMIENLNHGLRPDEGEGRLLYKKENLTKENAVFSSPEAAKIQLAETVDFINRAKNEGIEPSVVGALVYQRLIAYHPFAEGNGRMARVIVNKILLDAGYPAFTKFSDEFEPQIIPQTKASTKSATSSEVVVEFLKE
Method: 1 μM of HYPE (final concentration) and (where specified) 5 μM of T229A BiP (final concentration) were preincubated with 10 μM DMSO-dissolved compound (final concentration) or equivalent volume of 100% DMSO at room temperature for 10 min in HTS Buffer. Reactions were run for 10 min at 30° C. and began with the addition of 0.01 μCi/μL α-32P-ATP (final concentration). All reactions were performed according to our previously described protocol for in vitro radioactive AMPylation assays19. Where specified, 5 μM of T229A BiP (final concentration) was added to reactions before the addition of compound.
All bacterial Fic specificity assays were conducted with 1 μM GST-tagged IbpA-Fic2, 5 μM GST-tagged Q61L Cdc42, and 0.01 μCi/μL α-32P-ATP (all final concentrations). All other reaction parameters were kept as per HYPE radiolabeled in-gel AMPylation assays.

HYPE = settings: pilot screen of nearly 10,000 compounds; cited from earlier work
[2] = cherrypick validation, same FP assay
[3] = initial HTS, normalized to WT and E234G HYPE DMSO controls
[4] = cherrypick validation, same FP assay, read-out: % Inh. Cherry-pick
[5] = initial HTS, normalized to WT and E234G HYPE DMSO controls, read-out: % Inh. HTS

| Mean % Inh. (E234G HYPE) [%] | inhibition at 10 µM (E234G HYPE; [4]) [%] | inhibition at 10 µM (E234G HYPE; [5]) [%] | SMILES | also measured |
| --- | --- | --- | --- | --- |
| 31.1 |  |  | CCCCn1ccnc1C1CCCN(Cc2ccccn2)C1 (stereo not shown) [Compound I2.1] | % Inh. Cherry-pick (E234G HYPE; [2]): 29.7%; % Inh. HTS (E234G HYPE; [3]): 32.5% |
| 21.5 | 22.7 | 20.3 | CN(Cc1ccccn1)C(C(=O)O)c1ccc2c(c1)OCO2 (stereo not shown) [Compound I2.2] |  |
| 22.3 |  |  | Oc1ccc(CN2CCCCC2)c2cccnc12 [Compound I2.11] | % Inh. Cherry-pick (E234G HYPE; [2]): 24.6%; % Inh. HTS (E234G HYPE; [3]): 19.9% |
| 29.4 | 31 | 27.8 | CCCc1cc(O)n(-c2nc3ccccc3[nH]2)n1 [Compound I2.4] |  |

The next lines start with the compound.

| SMILES | Mean % Inh. (E234G HYPE) [%] | inhibition at 10 µM (E234G HYPE; [4]) [%] | inhibition at 10 µM (E234G HYPE; [5]) [%] | also measured |
| --- | --- | --- | --- | --- |
| CN(Cc1cccc2cnccc12)C(=O)c1cnc(-c2ccccn2)nc1O [Compound I2.3] | 32.9 |  |  | % Inh. Cherry-pick (E234G HYPE; [2]): 30.7%; % Inh. HTS (E234G HYPE; [3]): 35.0% |
| Cc1nn(-c2nc3ccccc3[nH]2)c2c1C(c1cc(Br)ccc1F)CC(=O)N2 (stereo not shown) [Compound I2.6] | 31.2 | 29.7 | 32.7 |  |
| Cc1nn(-c2nc3ccccc3[nH]2)c2c1C(c1ccc(F)cc1F)CC(=O)N2 (stereo not shown) [Compound I2.5] | 28.2 | 32.9 | 23.5 |  |
| O=C1Nc2ccc(Br)cc2C12NN=C(c1ccccc1)S2 (stereo not shown) [Compound I2.7] | 27.6 | 34.2 | 20.9 |  |
| Oc1cc(-c2ccc(F)cc2)nn1-c1nc2ccccc2[nH]1 [Compound I2.12] | 30.4 | 33.6 | 27.1 |  |
| CCc1ccc(N2CC(c3noc(-c4ccc(C#N)cc4)n3)CC2=O)cc1 (stereo not shown) [Compound I2.9] | 27.5 | 27.8 | 27.2 |  |
| Clc1ccc(C(c2ccc(Cl)cc2)n2cc[n+](CC(OCc3ccc(Cl)cc3Cl)c3ccc(Cl)cc3Cl)c2)cc1 (stereo not shown) [Compound A1, calmidazolium] |  |  |  | activation of WT HYPE autoAMPylation in gel (WT HYPE): bioactive above our DMSO control; concentration impacting cell viability (HeLa cells): ≤ 1000 nM; effect on IbpA-2 AMPylation of Cdc42 [1]: lack of AMPylation enhancement; effect on HYPE-mediated AMPylation in vitro (HYPE): enhance |
